Tested on: mRNA expression in cardiovascular tissues
Experiment: Affymetrix GeneChip mRNA expression profiling of monkey tissues (iliac vein, pulmonary vein, aorta, carotid artery, heart) after two-week oral-gavage treatment
Settings: iliac vein; group avg, Vioxx without A60055

## Cc1ccc(Nc2c(F)cccc2Cl)c(CC(=O)O)c1 [COX189, Lumiracoxib]
  HFE (211329_x_at) avg fold change vs control: 0.9 fold
  HFE (211332_x_at) avg fold change vs control: 1.1 fold
  HFE (211863_x_at) avg fold change vs control: 1.3 fold
  HFE (211866_x_at) avg fold change vs control: 1.2 fold
  HHL (203020_at) avg fold change vs control: 1.0 fold
  HLA-A (211528_x_at) avg fold change vs control: 1.3 fold
  HLA-A (211529_x_at) avg fold change vs control: 1.3 fold
  HLA-A (211530_x_at) avg fold change vs control: 1.6 fold
  HLA-A (215313_x_at) avg fold change vs control: 1.3 fold
  HLA-B (208729_x_at) avg fold change vs control: 1.3 fold
  HLA-B (209140_x_at) avg fold change vs control: 1.2 fold
  HLA-B (211911_x_at) avg fold change vs control: 1.3 fold
  HLA-C (208812_x_at) avg fold change vs control: 1.1 fold
  HLA-C (214459_x_at) avg fold change vs control: 1.2 fold
  HLA-C (216526_x_at) avg fold change vs control: 1.4 fold
  HLA-DMA (217478_s_at) avg fold change vs control: 1.2 fold
  HLA-DMB (203932_at) avg fold change vs control: 1.2 fold
  HLA-DQA1 (212671_s_at) avg fold change vs control: 1.6 fold
  HLA-DQB1 (209823_x_at) avg fold change vs control: 1.0 fold
  HLA-DQB1 (211654_x_at) avg fold change vs control: 1.8 fold
  HLA-DQB1 (211656_x_at) avg fold change vs control: 1.3 fold
  HLA-DQB2 (212998_x_at) avg fold change vs control: 1.4 fold
  HLA-DRA (208894_at) avg fold change vs control: 1.2 fold
  HLA-DRA (210982_s_at) avg fold change vs control: 1.1 fold
  HLA-DRB1 (215193_x_at) avg fold change vs control: 1.5 fold
  HLA-DRB3 (209312_x_at) avg fold change vs control: 1.3 fold
  HLA-DRB6 (217362_x_at) avg fold change vs control: 1.3 fold
  HLA-E (200905_x_at) avg fold change vs control: 1.2 fold
  HLA-E (217456_x_at) avg fold change vs control: 1.4 fold
  HLA-F (204806_x_at) avg fold change vs control: 1.2 fold
  HLA-F (221875_x_at) avg fold change vs control: 1.2 fold
  ICAM1 (202638_s_at) avg fold change vs control: 0.9 fold
  ICAM1 (215485_s_at) avg fold change vs control: 1.0 fold
  ICSBP1 (204057_at) avg fold change vs control: 1.2 fold
  IFI27 (202411_at) avg fold change vs control: 4.2 fold
  IFI30 (201422_at) avg fold change vs control: 1.1 fold
  IFI44 (214453_s_at) avg fold change vs control: 2.0 fold
  IFIT1 (203153_at) avg fold change vs control: 1.1 fold
  IFIT2 (217502_at) avg fold change vs control: 1.4 fold
  IFIT4 (204747_at) avg fold change vs control: 0.9 fold
  IFITM2 (201315_x_at) avg fold change vs control: 1.2 fold
  IFITM3 (212203_x_at) avg fold change vs control: 1.0 fold
  IGF1 (209541_at) avg fold change vs control: 0.9 fold
  IGFBP4 (201508_at) avg fold change vs control: 0.6 fold
  IL1A (208200_at) avg fold change vs control: 1.6 fold
  IL2RG (204116_at) avg fold change vs control: 1.3 fold
  IL27RA (205926_at) avg fold change vs control: 1.1 fold
  INDO (210029_at) avg fold change vs control: 1.2 fold
  INPP5D (203332_s_at) avg fold change vs control: 1.2 fold
  IRF1 (202531_at) avg fold change vs control: 1.3 fold
  IRF7 (208436_s_at) avg fold change vs control: 1.6 fold
  ISGF3G (203882_at) avg fold change vs control: 1.5 fold
  ITGB2 (202803_s_at) avg fold change vs control: 1.0 fold
  JAK1 (214377_s_at) avg fold change vs control: 1.1 fold
  KLKB1 (206541_at) avg fold change vs control: 1.0 fold
  LAIR1 (208071_s_at) avg fold change vs control: 1.1 fold
  LCK (204890_s_at) avg fold change vs control: 1.4 fold
  LCP2 (205270_s_at) avg fold change vs control: 1.2 fold
  LILRB1 (207857_at) avg fold change vs control: 0.7 fold
  LILRB1 (211100_x_at) avg fold change vs control: 1.0 fold
  LILRB3 (208594_x_at) avg fold change vs control: 1.0 fold
  LILRB3 (210225_x_at) avg fold change vs control: 1.1 fold
  LRMP (204674_at) avg fold change vs control: 1.6 fold
  LY86 (205859_at) avg fold change vs control: 0.9 fold
  LY96 (206584_at) avg fold change vs control: 1.0 fold
  LYN (210754_s_at) avg fold change vs control: 0.8 fold
  MAF (209348_s_at) avg fold change vs control: 0.9 fold
  PCOLCE (202465_at) avg fold change vs control: 0.8 fold
  PLA2G4C (209785_s_at) avg fold change vs control: 1.4 fold
  PLCL2 (216217_at) avg fold change vs control: 0.9 fold
  PLSCR1 (202446_s_at) avg fold change vs control: 1.0 fold
  PRC1 (218009_s_at) avg fold change vs control: 1.0 fold
  PRG1 (201858_s_at) avg fold change vs control: 0.9 fold
  PRG1 (201859_at) avg fold change vs control: 0.9 fold
  PTPN22 (206060_s_at) avg fold change vs control: 1.2 fold
  PTPRC (207238_s_at) avg fold change vs control: 1.1 fold
  SOCS3 (206360_s_at) avg fold change vs control: 1.0 fold
  STAT1 (209969_s_at) avg fold change vs control: 1.4 fold
  STAT1 (AFFX-HUMISGF3A/M97935_5_at) avg fold change vs control: 1.6 fold
  STAT1 (AFFX-HUMISGF3A/M97935_MA_at) avg fold change vs control: 1.2 fold
  STAT1 (AFFX-HUMISGF3A/M97935_MB_at) avg fold change vs control: 1.9 fold
  TAPBP (208829_at) avg fold change vs control: 1.1 fold
  TCTEL1 (201999_s_at) avg fold change vs control: 0.9 fold
  TLR1 (210176_at) avg fold change vs control: 0.8 fold
  TLR2 (204924_at) avg fold change vs control: 0.8 fold
  TNFAIP3 (202643_s_at) avg fold change vs control: 1.2 fold
  TNFAIP3 (202644_s_at) avg fold change vs control: 1.3 fold
  TNFSF6 (210865_at) avg fold change vs control: 1.3 fold
  TNFSF10 (202687_s_at) avg fold change vs control: 1.2 fold
  TNFSF10 (202688_at) avg fold change vs control: 1.2 fold
  TRGC2 (211144_x_at) avg fold change vs control: 1.3 fold
  TRGC2 (216920_s_at) avg fold change vs control: 1.1 fold
  VCAM1 (203868_s_at) avg fold change vs control: 0.9 fold
  XCL1 (206366_x_at) avg fold change vs control: 1.7 fold
  XCL1 (214567_s_at) avg fold change vs control: 1.3 fold
  XLKD1 (219059_s_at) avg fold change vs control: 1.0 fold
  cig5 (213797_at) avg fold change vs control: 1.8 fold

Reference: patent US9738932B2, “Biomarkers for cardiovascular side-effects induced by cox-2 inhibitory compounds” (FIRALIS SAS, priority 2005, dated 2017)
